How the values were obtained:
70S Ribosome [1] = test: Fluorescence polarization titration of probe binding affinity and kinetics; design: species or system E. coli; details: for binding affinity compared with Probe 203 / binding kinetics compared with Probe 203: summarized in FIG. 39
70S Ribosome [2] = test: Fluorescence polarization competition with Probe 203 bound to ribosomes; type: binding, E. coli; details: for IC50: compound titrated 400 μM to 1.5 nM, ribosome 150-200% above Kd, read-out: IC50 for competing out Probe 203

“4″-Bodipy FL-aminoethylcarbamate clarithromycin [Probe 242]” was tested, and the “binding affinity compared with Probe 203” value (70S Ribosome [1]; fluorescence polarization) was “greater affinity” and the “binding kinetics compared with Probe 203” value (70S Ribosome [1]; fluorescence polarization) was “even slower kinetics”.

Compound `O=C(N[C@H](CO)[C@H](O)c1ccc([N+](=O)[O-])cc1)C(Cl)Cl` [Chloramphenicol] has an IC50 (70S Ribosome [2]) of 19 µM.

`CC[C@H]1OC(=O)[C@H](C)[C@@H](O[C@H]2C[C@@](C)(OC)[C@@H](O)[C@H](C)O2)[C@H](C)[C@@H](O[C@@H]2O[C@H](C)C[C@H](N(C)C)[C@H]2O)[C@](C)(O)C[C@@H](C)C(=O)[C@H](C)[C@@H](O)[C@]1(C)O` [Erythromycin] gave an IC50 (70S Ribosome [2]) of 0.03 µM.

`COc1ccc(C[C@H](N)C(=O)N[C@H]2[C@@H](O)[C@H](n3cnc4c(N(C)C)ncnc43)O[C@@H]2CO)cc1` [puromycin] was tested, and the “competition with Probe 203” value (70S Ribosome [2]; antibiotic binding to more distant region of the ribosome) was “did not show competition”.

With “9-(4,4-difluoro-5,7-dimethyl-4-bora-3a,4a-diaza-s-indacene-3-propionyl)-amino-erythromycin [Probe 203]” the “incubation time to reach binding equilibrium” value (70S Ribosome [1]; fluorescence polarization read at various time points) was “greater than a half hour” and the “affinity for ribosomes compared with values reported in the literature for the parent erythromycin” value (70S Ribosome [1]; fluorescence polarization, ribosome titration 1650 nM to 0.4 nM, buffer with 20% glycerol) was “slightly reduced affinity”.

With “9-benzyloxycarbonylamino-4″-Bodipy FL aminoethylcarbamate erythromycin [Probe 238]” the “binding affinity compared with Probe 203” value (70S Ribosome [1]; fluorescence polarization) was “greater affinity” and the “binding kinetics compared with Probe 203” value (70S Ribosome [1]; fluorescence polarization) was “even slower kinetics”.

Source: patent publication US20050118624A1, “Fluorescent probes for ribosomes and method of use” (Cumbre Inc., priority 2003, published 2005)
